Experimental data: patent US6358998B1, “Body fat-reducing agent comprising dioxabicyclo[3.3.0] octane derivative as active ingredient” (Rinoru Oil Mills Co., LTD, priority 1999, dated 2002)

Legend:
fat tissues of rats = assay: Example 1: four-week feeding of experimental diet to rats, organ and fat tissue weights; format: in vivo, rat; settings: Sprague-Dawley male rats, four weeks of feeding, compared with the control group
Source text: Sprague-Dawley male rats of four weeks of age were acclimatized, and then divided into three groups (each group consisting of 8 rats), a 1.0% linoleic acid group (a control group), 0.2% sesamin group, and 0.2% sesamin+1.0% CLA group. The experimental diet shown in Table 1 and water were then freely fed to these three groups of rats. […] Four weeks after the initiation of feeding, the 8 rats constituting each group were scarified, and the organs were taken out.

perfused liver = assay: Example 2: liver perfusion experiment, triglyceride secretion; format: in vivo, rat; settings: Sprague-Dawley male rats, three weeks of feeding, compared with the control group
Source text: Sprague-Dawley male rats of four weeks of age were acclimatized for 5 to 11 days, and then divided into three groups (each group consisting of 5 rats), a 1.0% linoleic acid group (a control group), 0.2% sesamin group, and 0.2% sesamin+1.0% CLA group. In the experiment, CE-2 (lipid content 4.5%) manufactured by CLEA JAPAN INC. with 1.5% of a soybean oil being added thereto was used as a basic diet, and the experimental diet was freely fed to the rats. […] Three weeks after the initiation of feeding, a liver perfusion experiment was carried out.

c1cc2c(cc1[C@H]1OC[C@H]3[C@@H]1CO[C@@H]3c1ccc3c(c1)OCO3)OCO2 [Sesamin, sesamin]
reduced: weight of fat tissues around epididymis (fat tissues of rats) | weight of fat tissues around kidney (fat tissues of rats) | amount of triglyceride secreted from the perfused liver (perfused liver)
